Article PMC11680018, “Study of Cytotoxicity of Spiro-Fused [3-Azabicyclo[3.1.0]hexane]oxindoles and Cyclopropa[a]pyrrolizidine-oxindoles Against Tumor Cell Lines” (Pharmaceuticals, 2024)
Where two headings read alike, the source gives them in different places.

Assays:
[1] = test system: human erythroleukemia (K562) cell line; experiment: MTS cell proliferation assay, K562; format: cell-based; conditions: for IC50: Homo sapiens, MTS; for SI (selectivity index) K562: ratio of cytotoxicity PBMC / K562, calculated at 72 h
Description: (§1) Cancer cell lines are valuable in vitro model systems that are widely used in cancer research and drug discovery. Their use is mainly linked to their possibility to provide for experimental purposes an unlimited source of biological material. Here, the 24 and 72 h in vitro MTS assay was used to determine the antiproliferative activity of synthesized spiro-fused cyclopropa[a]pyrrolizidine-2,3′-oxindoles and [3-azabicyclo[3.1.0]hexane]-oxindoles against human erythroleukemia (K562), acute T cell leukemia (Jurkat), cervical carcinoma (HeLa), melanoma (Sk-mel-2), breast cancer adenocarcinoma (MCF-7) as well as mouse colon carcinoma (CT26) cell lines. […] The full results of these investigations are presented in the Supporting Information Figures S1–S6. […] An evaluation of the cytotoxicity of the selected compounds towards normal cells (peripheral blood mononuclear cells) was performed additionally to understand their respective relative selectivities. The selectivity index was obtained using the ratio of measured cytotoxicity between the PBMC cells and each of the cancer cell lines, and the results are presented in Table 3.
(§2) The human erythroleukemia (K-562), cervical carcinoma (HeLa) as well as mouse colon carcinoma (CT26) cell lines were obtained from the Bank of Cell Cultures of the Institute of Cytology of the Russian Academy of Sciences; the human melanoma (Sk-mel-2) cell line was obtained from the Bank of Cell Cultures of the Institute of Cytology and Genetics, Siberian Branch of the Russian Academy of Sciences. The acute T cell leukemia (Jurkat) cell line was obtained from the Bank of Cell Cultures of the Institute of Immunology of the Russian Academy of Medical Sciences. The peripheral blood mononuclear cells (PBMC) were isolated from the blood of healthy donors. K-562, Jurkat, MCF-7, PBMC and CT26 cells were grown on RPMI medium (Hyclone, GE Healthcare Life Sciences, Logan, UT, USA) supplemented with 10% (v/v) fetal bovine serum (Hyclone, GE Healthcare Life Sciences, Logan, UT, USA) and gentamicin (Sigma-Aldrich, St. Louis, MO, USA) at 37 °C in a humidified atmosphere with 5% CO2. HeLa and Sk-mel-2 cells were cultured with the same supplements and conditions in DMEM medium (Hyclone, GE Healthcare Life Sciences, Logan, UT, USA).
(§3) To evaluate the in vitro toxicity of the compounds synthesized, cells were seeded into 96-well plates at a density of 5 × 10^3 cells per well. On the next day, the tested compounds were added to the wells at concentrations ranging from 1 to 30 μg/mL, followed by incubation for 1 and 3 days. Cell proliferation was determined by adding 20 μL of MTS reagent (BioVision, Milpitas, CA, USA) stock solution per well. The plates were incubated for 2 h at 37 °C in a humidified, 5% CO2 atmosphere. The plates were then read at 495 nm using a plate spectrophotometer (Multiskan GO, Thermo Fisher Scientific, Waltham, MA, USA). All samples were measured in triplicate.

[2] = test system: peripheral blood mononuclear cells (PBMC); experiment: MTS cytotoxicity towards normal cells, PBMC; format: cell-based; conditions: Homo sapiens
Description: as §1, §2, §3

[3] = test system: breast cancer adenocarcinoma (MCF-7) cell line; experiment: MTS cell proliferation assay, MCF-7; format: cell-based, human; conditions: for IC50: Homo sapiens, MTS; for SI (selectivity index) MCF-7: ratio of cytotoxicity PBMC / MCF-7, calculated at 72 h
Description: as §1, §2, §3

[4] = test system: cervical carcinoma (HeLa) cell line; experiment: MTS cell proliferation assay, HeLa; format: cell-based, human; conditions: for IC50: Homo sapiens, HeLa, MTS; for SI (selectivity index) HeLa: ratio of cytotoxicity PBMC / HeLa, calculated at 72 h
Description: as §1, §2, §3

[5] = test system: acute T cell leukemia (Jurkat) cell line; experiment: MTS cell proliferation assay, Jurkat; format: cell-based, human; conditions: for IC50: Homo sapiens, Jurkat, MTS; for SI (selectivity index) Jurkat: ratio of cytotoxicity PBMC / Jurkat, calculated at 72 h
Description: as §1, §2, §3

[6] = test system: HeLa cells actin cytoskeleton; experiment: Actin cytoskeleton staining, confocal microscopy, HeLa; format: cell-based, human; conditions: 10 μg/mL, 24 h
Description: It was found using confocal microscopy that incubation with spiro-fused [3-azabicyclo[3.1.0]hexane]oxindoles 4, 8, 17, 18, 22, 24 and cyclopropa[a]pyrrolizidine-2,3′-oxindole 2 led to significant changes in the HeLa cells’ actin cytoskeleton structure leading to the disappearance of stress fibers (granular actin was distributed diffusely in the cytoplasm in up to 38% of treated cells) and changes in the number of filopodia-like deformations (reduced from 93% in control cells to 64% after treatment). The impact on the Sk-mel-2 cells’ actin cytoskeleton structure was even greater: granular actin was distributed diffusely in the cytoplasm in up to 90% of treated cells while the number of filopodia-like deformations was reduced by up to 23%. Such changes in the cytoskeleton may indicate a change in the motor activity of cells, which may indicate a decrease in the ability of tumor cells to metastasize.
HeLa cells were seeded at a density of 2 × 10^5 cells per dish onto a petri dish with cover slips and incubated for 24 h. After that, cells were treated with chosen compounds (10 μg/mL) for 24 h. The medium was removed and cells were fixed with 4% paraformaldehyde (Sigma-Aldrich, St. Louis, MO, USA), washed three times with PBS, and permeabilized with 0.3% Triton-X100 (Sigma-Aldrich, St. Louis, MO, USA). The cells were rinsed three times with PBS. Actin filaments (microfilaments) were stained with rhodamine–phalloidin (Invitrogen, Carlsbad, CA, USA) at 37 °C for 15 min. The samples were rinsed three times with PBS, followed by embedding in Fluoroshield medium (Sigma-Aldrich, St. Louis, MO, USA). Cells were imaged using an Axio Observer Z1 confocal microscope (Carl Zeiss MicroImaging GmbH, Jena, Germany). In each experiment, at least 30 cells were imaged. Images were analyzed by a pathologist blinded to the treatment mode used for each group using ImageJ software, 1.52v.

[7] = test system: melanoma (Sk-mel-2) cell line; experiment: MTS cell proliferation assay, Sk-mel-2; format: cell-based, human; conditions: for IC50: Homo sapiens, MTS; for SI (selectivity index) Sk-mel-2: ratio of cytotoxicity PBMC / Sk-mel-2, calculated at 72 h
Description: as §1, §2, §3

[8] = test system: mouse colon carcinoma (CT26) cell line; experiment: MTS cell proliferation assay, CT26; format: cell-based; conditions: for IC50: Mus musculus, MTS; for SI (selectivity index) CT26: ratio of cytotoxicity PBMC / CT26, calculated at 72 h
Description: as §1, §2, §3

K562 cells = experiment: Cell cycle analysis by flow cytometry; format: cell-based, human; conditions: 24 h; for K562 cells in SubG1 phase: control 4.5 ± 0.9; for K562 cells in G2/M phase: control 23.1 ± 1.7; for K562 cells in S phase: control 31.9 ± 1.0; for K562 cells in G0/G1 phase: control 40.5 ± 1.3
Source text: Since growth inhibition may be a result of cell cycle arrest at a particular point, the specific antiproliferative activity of several cycloadducts was further evaluated by flow cytometry to study their impact on the progression of the cell cycle in K562 cells. The assay utilizes propidium iodide-based staining of DNA content to distinguish and measure the accumulation of cells in each cell cycle phase (SubG, G0/G1, S and G2/M).
The distribution of K562 cells in the G0/G1-, S- and G2/M-phases of the cell cycle was obtained by quantification of DNA content using flow cytometry in DAPI-stained cells. Briefly, cells were seeded at a density of 5 × 10^4 cells per well in 24-well plates. […] After incubation with drugs, the cells were harvested by pipetting. This was followed by treatment with 0.2 mg/mL saponin (Fluka, Waltham, MA, USA) and 0.05 mg/mL DAPI (Thermo scientific, Rockford, IL, USA). After washing, the samples were analyzed using a standard flow cytometer (BD FACSCanto II, Becton Dickinson, San Jose, CA, USA). A total of 10,000 events were acquired for the samples. Data processing was performed using the BD FACSDiva 9.0 software.

[9] = test system: human melanoma (Sk-mel-2) cell line; experiment: Cell motility by scratch test; format: cell-based; conditions: 10 μg/mL, 36 h, serum-free DMEM; nontreated cells 69.5 ± 17.2
Description: To assess the potential ability of spiro-fused [3-azabicyclo[3.1.0]hexane]oxindoles 4, 11, 12, 18, 24 and cyclopropa[a]pyrrolizidine-2,3′-oxindole 2 to inhibit metastasis associated with cell motility, a scratch test was performed on the human melanoma (Sk-mel-2) cell line. Different fields were analyzed by bright field, and each scratch area was photographed at 0 and 36 h for non-toxic and fast cell visualization. Nontreated Sk-mel-2 cells filled 69.5 ± 17.2, 41.5 ± 5.3, 59.7 ± 8.1, 49.3 ± 5.3, 43.0 ± 12.6, 26.1 ± 2.5 and 55.9 ± 8.6% of the scratched strip while under treatment with spiro-fused oxindole derivatives 2, 4, 11, 12, 18 and 24 cells, respectively.
Cells were seeded at a density of 5 × 10^5 cells per dish onto petri dishes and grown to confluency. A 200 μL pipette tip was used to make scratch wounds and detached cells were removed after that by washing with phosphate-buffered saline. Culture media was replaced with serum-free DMEM in order to inhibit cell proliferation. Compounds to be screened were added at a dose of 10 μg/mL to the cultures and incubated for 36 h. Different fields were analyzed by bright field, and each scratch area was photographed at 0 and 36 h. Images were captured using an Axio Observer Z1 confocal microscope (Carl Zeiss MicroImaging GmbH, Jena, Germany). The percent of wound closure in five randomly chosen fields was calculated with ImageJ software, 1.52v.

[10] = read-out: IC50 K562 24 h, K562, 24 h
[11] = K562, 72 h, read-out: IC50 K562 72 h
[12] = MCF7, read-out: IC50 MCF-7 24 h, MCF-7, 24 h
[13] = MCF7, MCF-7, 72 h, read-out: IC50 MCF-7 72 h
[14] = read-out: IC50 Jurkat 24 h, 24 h
[15] = 72 h, read-out: IC50 Jurkat 72 h
[16] = read-out: IC50 Sk-mel-2 24 h, Sk-mel-2, 24 h
[17] = Sk-mel-2, 72 h, read-out: IC50 Sk-mel-2 72 h
[18] = read-out: IC50 CT26 24 h, CT26, 24 h
[19] = CT26, 72 h, read-out: IC50 CT26 72 h

Compound	IC50 [1, 10] [µM]	IC50 [1, 11] [µM]	SI (selectivity index) K562 [1]	IC50 ([2]; 72 h, read-out: IC50 PBMC 72 h) [µM]	IC50 ([2]; read-out: IC50 PBMC 24 h, 24 h) [µM]	IC50 [3, 12] [µM]	IC50 [3, 13] [µM]	SI (selectivity index) MCF-7 [3]	IC50 ([4]; read-out: IC50 HeLa 24 h, 24 h) [µM]	IC50 ([4]; 72 h, read-out: IC50 HeLa 72 h) [µM]	SI (selectivity index) HeLa [4]	IC50 [5, 14] [µM]	IC50 [5, 15] [µM]	SI (selectivity index) Jurkat [5]	IC50 [7, 16] [µM]	IC50 [7, 17] [µM]	SI (selectivity index) Sk-mel-2 [7]	IC50 [8, 18] [µM]	IC50 [8, 19] [µM]	SI (selectivity index) CT26 [8]	also measured
CC(C)CC1NC2(C(=O)Nc3ccccc32)C2(c3ccccc3)C(c3ccccc3)C12c1ccccc1 (centres unmarked) [Compound 22]	> 40	12 ± 1	5	64 ± 6	132 ± 16	> 40	> 40	1	> 40	23 ± 2	3	21 ± 2	4 ± 1	16	> 40	23 ± 2	3	> 40	39 ± 3	2	HeLa cells with filopodia-like deformations ([6]; control cells 93%, lowest value over the compounds): ≥ 64%; HeLa cells with granular actin distributed diffusely in the cytoplasm (stress fibers disappeared) ([6]; maximum over the compounds): up to 38%
COc1cccc2c1C(=O)c1c(O)c3c(c(O)c1C2=O)C[C@@](O)(C(=O)CO)C[C@@H]3O[C@H]1C[C@H](N)[C@H](O)[C@H](C)O1 [Doxorubicin, reference compound]	16 ± 3	1 ± 0.4	9	9 ± 1	11 ± 1	–	–	–	4 ± 1	1 ± 0.1	9	–	–	–	–	–	–	19 ± 3	6 ± 1	2	K562 cells in SubG1 phase (K562 cells; 1 μg/mL): 43.0 ± 1.0%; K562 cells in G2/M phase (K562 cells; 1 μg/mL): 2.2 ± 0.3%; K562 cells in S phase (K562 cells; 1 μg/mL): 8.8 ± 1.7%; K562 cells in G0/G1 phase (K562 cells; 1 μg/mL): 45.6 ± 0.8%; K562 cells in SubG1 phase (K562 cells; 5 μg/mL): 93.1 ± 0.7%; K562 cells in G2/M phase (K562 cells; 5 μg/mL): 0.2 ± 0.1%; K562 cells in S phase (K562 cells; 5 μg/mL): 0.8 ± 0.1%; K562 cells in G0/G1 phase (K562 cells; 5 μg/mL): 5.9 ± 0.6%
CC[C@H](C)C1NC2(C(=O)Nc3ccccc32)C2(c3ccccc3)C(c3ccccc3)C12c1ccccc1 (some centres unmarked) [Compound 23]	> 40	21 ± 2	8	165 ± 16	177 ± 20	> 40	> 40	3	> 40	> 40	3	25 ± 2	12 ± 1	13	> 40	> 40	3	> 40	> 40	3	–
COC(=O)C1C2(c3ccccc3)C3CCCN3C3(C(=O)Nc4ccc(Cl)cc43)C12c1ccccc1 (centres unmarked) [Compound 12]	–	–	–	–	–	–	–	–	–	–	–	–	–	–	–	–	–	–	–	–	Part of the scratched strip filled by Sk-mel-2 cells [9]: 43.0 ± 12.6%
